Structures can show the parent of a compound that is named as a salt.
Tests used:
[1] = target: catalytic domain (JH1, amino acids 826-1132) of human JAK2 (Homo sapiens (Human), UniProt O60674); assay: JAK2 LanthaScreen JH1 Binding Assay; details: JAK2 JH1 1.5 nM, 50 nM fluorescent tracer, 2 hours at 25° C.; read-out: JH1 BIND IC50
Protocol: Example A. JAK2 LanthaScreen JH1 Binding Assay
(§1) JAK2 JH1 binding assay utilizes catalytic domain (JH1, amino acids 826-1132) of human JAK2 expressed as N-terminal FLAG-tagged, biotinylated protein in a baculovirus expression system (Carna Biosciences, Product #08-445-20N). The assay was conducted in black 384-well polystyrene plates in a final reaction volume of 20 μL. JAK2 JH1 (1.5 nM) was incubated with compounds (100 nL serially diluted in DMSO) in the presence of 50 nM Fluorescent JAK2-JH1 Tracer and 0.5 nM Streptavidin-Tb cryptate (Cisbio Part #610SATLB) in assay buffer (50 mM Tris, pH=7.5, 10 mM MgCl2, 0.01% Brij-35, 0.1% BSA, 1 mM EGTA, 5% Glycerol and 5 mM DTT). Non-specific binding was accessed in the presence of 2 mM ATP. After incubation for 2 hours at 25° C., LanthaScreen signals were read on a PHERAstar FS plate reader (BMG LABTECH). Data was analyzed with IDBS XLfit and GraphPad Prism 5.0 software using a four parameter dose response curve to determine IC50 for each compound.

[2] = target: pseudo-kinase domain (JH2, amino-acids 536-812) of human V617F mutant JAK2 (Homo sapiens (Human), UniProt O60674, F794H/V617F/W659A/W777A); assay: JAK2 LanthaScreen JH2-V617F Binding Assay; details: JAK2 JH2-V617F 0.26 nM, 50 nM fluorescent tracer, 1 hour at 25° C.; read-out: JH2 BIND V617F IC50
pseudo-kinase domain (JH2, amino-acids 536-812) of human V617F mutant JAK2, sequence (O60674 536-812 V617F/W659A/W777A/F794H): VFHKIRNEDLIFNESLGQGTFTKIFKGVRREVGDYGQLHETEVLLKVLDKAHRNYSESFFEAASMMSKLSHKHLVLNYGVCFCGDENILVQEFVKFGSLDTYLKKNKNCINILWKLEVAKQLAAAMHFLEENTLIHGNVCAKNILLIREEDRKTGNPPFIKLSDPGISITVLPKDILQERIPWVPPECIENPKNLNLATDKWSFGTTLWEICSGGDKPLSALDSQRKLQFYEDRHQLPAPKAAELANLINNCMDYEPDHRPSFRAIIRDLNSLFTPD
Protocol: The assay was conducted in black 384-well polystyrene plates in a final reaction volume of 20 μL. […] Non-specific binding was accessed in the presence of 2 mM ATP. After incubation for 1 hour at 25° C., LanthaScreen signals were read on a PHERAstar FS plate reader (BMG LABTECH). Data was analyzed with IDBS XLfit and GraphPad Prism 5.0 software using a four parameter dose response curve to determine IC50 for each compound.

[3] = target: catalytic domain (JH1, amino acids 808-1132) of human JAK2 (Homo sapiens (Human), UniProt O60674); assay: JAK2 HTRF Enzyme Activity Assay; assay type: biochemical; details: JAK2 0.015 nM, ATP (30 μM or 1 mM), 60 minutes at 25° C.
catalytic domain (JH1, amino acids 808-1132) of human JAK2, sequence (O60674 808-1132): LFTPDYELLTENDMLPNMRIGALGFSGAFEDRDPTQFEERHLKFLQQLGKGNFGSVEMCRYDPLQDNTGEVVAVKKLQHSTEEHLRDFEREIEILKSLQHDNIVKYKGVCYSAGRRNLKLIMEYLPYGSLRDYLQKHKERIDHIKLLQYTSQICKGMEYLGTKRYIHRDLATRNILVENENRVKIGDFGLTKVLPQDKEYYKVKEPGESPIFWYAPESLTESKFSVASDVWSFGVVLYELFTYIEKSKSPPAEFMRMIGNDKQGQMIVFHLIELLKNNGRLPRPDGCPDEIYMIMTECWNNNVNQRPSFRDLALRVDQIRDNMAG
Protocol: Example D. JAK2 HTRF Enzyme Activity Assay
JAK2 enzyme activity assays utilize catalytic domain (JH1, amino acids 808-1132) of human JAK2 expressed as N-terminal His-tagged protein in a baculovirus expression system (BPS Bioscience, Catalog #40450). The assays was conducted in black 384-well polystyrene plates in a final reaction volume of 20 μL. JAK2 (0.015 nM) was incubated with compounds (100 nL serially diluted in DMSO) in the presence of ATP (30 μM or 1 mM) and 500 nM Biotin-labeled […] (SEQ ID NO.: 1) peptide (BioSource International, custom synthesis) in assay buffer (50 mM Tris, pH=7.5, 10 mM MgCl2, 0.01% Brij-35, 0.1% BSA, 1 mM EGTA, 5% Glycerol and 5 mM DTT) for 60 minutes at 25° C. The reactions were stopped by the addition of 10 μL of detection buffer (50 mM Tris, pH 7.8, 0.5 mg/mL BSA, 150 mM NaCl), supplemented with EDTA, LANCE Eu-W1024 anti-phosphotyrosine (PY20), (PerkinElmer, Catalog #AD0067) and Streptavidin SureLight APC (PerkinElmer Catalog #CR130-100), for a final concentration of 15 mM, 1.5 nM and 75 nM, respectively. HTRF signals were read after 30 minutes incubation at room temperature on a PHERAstar FS plate reader (BMG LABTECH). Data was analyzed with IDBS XLfit and GraphPad Prism 5.0 software using a four parameter dose response curve to determine IC50 for each compound.

[4] = target: pseudo-kinase domain (JH2, amino-acids 536-812) of human Wild Type JAK2 (Homo sapiens (Human), UniProt O60674, F794H/W659A/W777A); assay: JAK2 LanthaScreen JH2-WT Binding Assay; details: JAK2 JH2-WT 0.145 nM, 50 nM fluorescent tracer, 1 hour at 25° C.; read-out: JH2 BIND WT IC50
pseudo-kinase domain (JH2, amino-acids 536-812) of human Wild Type JAK2, sequence (O60674 536-812 W659A/W777A/F794H): as the sequence (O60674 536-812 V617F/W659A/W777A/F794H) above, with F82V counted along it
Protocol: Example B. JAK2 LanthaScreen JH2-WT Binding Assay
as §1, with “The” for “JAK2 JH1 binding assay utilizes catalytic domain (JH1, amino acids 826-1132) of human JAK2 expressed as N-terminal FLAG-tagged, biotinylated protein in a baculovirus expression system (Carna Biosciences, Product #08-445-20N). The”, “JH2-WT (0.145” for “JH1 (1.5”, “JAK2-JH2” for “JAK2-JH1”, “Tracer (MedChem Express Catalog #HY-102055)” for “Tracer”, “0.25” for “0.5”, “1 hour” for “2 hours”

catalytic domain (JH1, amino acids 826-1132) of human JAK2, sequence (O60674 826-1132): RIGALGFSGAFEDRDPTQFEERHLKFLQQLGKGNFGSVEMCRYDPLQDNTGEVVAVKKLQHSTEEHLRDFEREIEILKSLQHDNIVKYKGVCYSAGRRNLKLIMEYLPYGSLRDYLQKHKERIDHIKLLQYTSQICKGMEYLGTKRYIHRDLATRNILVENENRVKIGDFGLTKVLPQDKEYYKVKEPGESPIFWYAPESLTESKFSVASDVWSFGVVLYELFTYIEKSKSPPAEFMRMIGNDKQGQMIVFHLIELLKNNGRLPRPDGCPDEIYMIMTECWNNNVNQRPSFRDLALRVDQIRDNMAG

Structure (SMILES) | IC50 [1] | IC50 [2] | IC50 [3] | IC50 [4]
CN1C(=O)N(c2ccc(C(=O)O)cc2)Cc2c1cnc1[nH]c(-c3ccc(CN4CCC(S(C)(=O)=O)CC4)cc3)c(C3CC3)c21 [Example 23, 4-(9-Cyclopropyl-4-methyl-8-(4-((4-(methylsulfonyl)piperidin-1-yl)methyl)phenyl)-3-oxo-1,3,4,7-tetrahydro-2H-pyrrolo[3′,2′:5,6]pyrido[3,4-d]pyrimidin-2-yl)benzoic acid, trifluoroacetic acid salt] | > 2500 nM | ≤ 100 nM | > 2500 nM | ≤ 100 nM
CN1C(=O)N(C(C)(C)C)Cc2c1cnc1[nH]c(-c3ccc(CN4CCC(S(C)(=O)=O)CC4)cc3)c(-c3ccc(C(=O)NCC4(C#N)CC4)cc3)c21 [Example 14, 4-(2-(tert-Butyl)-4-methyl-8-(4-((4-(methylsulfonyl)piperidin-1-yl)methyl)phenyl)-3-oxo-2,3,4,7-tetrahydro-1H-pyrrolo[3′,2′:5,6]pyrido[3,4-d]pyrimidin-9-yl)-N-((1-cyanocyclopropyl)methyl)benzamide Trifluoroacetic Acid] | ≤ 100 nM | ≤ 100 nM | ≤ 100 nM | ≤ 100 nM
CC(=O)N1CCN(c2ccc(-c3c(-c4ccc(CN5CCC(S(C)(=O)=O)CC5)cc4)[nH]c4ncc5c(c34)CN(C(C)(C)C)C(=O)N5C)cc2)CC1 [Example 18, 9-(4-(4-Acetylpiperazin-1-yl)phenyl)-2-(tert-butyl)-4-methyl-8-(4-((4-(methylsulfonyl)piperidin-1-yl)methyl)phenyl)-1,2,4,7-tetrahydro-3H-pyrrolo[3′,2′:5,6]pyrido[3,4-d]pyrimidin-3-one, trifluoroacetic acid salt] | ≤ 100 nM | ≤ 100 nM | ≤ 100 nM | ≤ 100 nM
CC(C(N)=O)n1cc(-c2ccc(-c3c(-c4ccc(CN5CCC(S(C)(=O)=O)CC5)cc4)[nH]c4ncc5c(c34)CN(C(C)(C)C)C(=O)N5C)cc2)cn1 (racemic) [Example 19, 2-(4-(4-(2-(tert-Butyl)-4-methyl-8-(4-((4-(methylsulfonyl)piperidin-1-yl)methyl)phenyl)-3-oxo-2,3,4,7-tetrahydro-1H-pyrrolo[3′,2′:5,6]pyrido[3,4-d]pyrimidin-9-yl)phenyl)-1H-pyrazol-1-yl)propanamide Trifluoroacetic Acid Salt] | ≤ 100 nM | ≤ 100 nM | ≤ 100 nM | ≤ 100 nM
COc1ccc(-c2c(-c3ccc(CN4CCC(S(C)(=O)=O)CC4)cc3)[nH]c3ncc4c(c23)CN(c2ccc(C(=O)NCC(=O)NNCc3ccccc3)cc2)C(=O)N4C)cc1 [Example 13, N-(2-(2-Benzylhydrazineyl)-2-oxoethyl)-4-(9-(4-methoxyphenyl)-4-methyl-8-(4-((4-(methylsulfonyl)piperidin-1-yl)methyl)phenyl)-3-oxo-1,3,4,7-tetrahydro-2H-pyrrolo[3′,2′: 5,6]pyrido[3,4-d]pyrimidin-2-yl)benzamide, TFA] | 1000 to 2500 nM | – | 1000 to 2500 nM | –
COc1ccc(-c2c(C3CC3)[nH]c3ncc4c(c23)CN(c2ccc(C(=O)O)cc2)C(=O)N4C)cc1 [Example 26, 4-(8-Cyclopropyl-9-(4-methoxyphenyl)-4-methyl-3-oxo-1,3,4,7-tetrahydro-2H-pyrrolo[3′,2′:5,6]pyrido[3,4-d]pyrimidin-2-yl)benzoic acid] | > 2500 nM | 100 to 500 nM | > 2500 nM | 100 to 500 nM
CN1C(=O)N(c2ccc(C(=O)O)cc2)Cc2c1cnc1[nH]c(-c3ccc(CN4CCC(S(C)(=O)=O)CC4)cc3)c(C#N)c21 [Example 24, 4-(9-Cyano-4-methyl-8-(4-((4-(methylsulfonyl)piperidin-1-yl)methyl)phenyl)-3-oxo-1,3,4,7-tetrahydro-2H-pyrrolo[3′,2′:5,6]pyrido[3,4-d]pyrimidin-2-yl)benzoic acid Trifluoroacetic Acid Salt] | > 2500 nM | 100 to 500 nM | > 2500 nM | 100 to 500 nM
CC1c2c(cnc3[nH]c(-c4ccc(CN5CCC(S(C)(=O)=O)CC5)cc4)cc23)N(C)C(=O)N1c1ccc(C(=O)O)cc1 (racemic) [Example 10, 4-(1,4-Dimethyl-8-(4-((4-(methylsulfonyl)piperidin-1-yl)methyl)phenyl)-3-oxo-1,3,4,7-tetrahydro-2H-pyrrolo[3′,2′:5,6]pyrido[3,4-d]pyrimidin-2-yl)benzoic Acid] | 1000 to 2500 nM | 100 to 500 nM | 1000 to 2500 nM | ≤ 100 nM
COC(=O)c1c(-c2ccc(CN3CCC(S(C)(=O)=O)CC3)cc2)[nH]c2ncc3c(c12)CN(c1ccc(C(=O)O)cc1)C(=O)N3C [Example 15, 4-(9-(Methoxycarbonyl)-4-methyl-8-(4-((4-(methylsulfonyl)piperidin-1-yl)methyl)phenyl)-3-oxo-1,3,4,7-tetrahydro-2H-pyrrolo[3′,2′:5,6]pyrido[3,4-d]pyrimidin-2-yl)benzoic acid Trifluoroacetic Acid Salt] | > 2500 nM | 100 to 500 nM | > 2500 nM | 100 to 500 nM
CN1C(=O)N(c2ccc(C(=O)O)cc2)Cc2c1cnc1[nH]c(-c3ccc(CN4CCC(S(C)(=O)=O)CC4)cc3)cc21 [Example 3, 4-(4-Methyl-8-(4-((4-(methylsulfonyl)piperidin-1-yl)methyl)phenyl)-3-oxo-1,3,4,7-tetrahydro-2H-pyrrolo[3′,2′:5,6]pyrido[3,4-d]pyrimidin-2-yl)benzoic Acid] | 1000 to 2500 nM | ≤ 100 nM | 1000 to 2500 nM | ≤ 100 nM
CC(=O)N1CC=C(c2c(-c3ccc(CN4CCC(S(C)(=O)=O)CC4)cc3)[nH]c3ncc4c(c23)CN(c2ccc(C(=O)O)cc2)C(=O)N4C)CC1 [Example 20, 4-(9-(1-Acetyl-1,2,3,6-tetrahydropyridin-4-yl)-4-methyl-8-(4-((4-(methylsulfonyl)piperidin-1-yl)methyl)phenyl)-3-oxo-1,3,4,7-tetrahydro-2H-pyrrolo[3′,2′:5,6]pyrido[3,4-d]pyrimidin-2-yl)benzoic acid Trifluoroacetic Acid Salt] | > 2500 nM | ≤ 100 nM | > 2500 nM | ≤ 100 nM
CS(=O)(=O)C1CCN(Cc2ccc(-c3cc4c5c(cnc4[nH]3)NC(=O)N(C3CCCCC3)C5)cc2)CC1 [Example 5, 2-Cyclohexyl-8-(4-((4-(methylsulfonyl)piperidin-1-yl)methyl)phenyl)-1,2,4,7-tetrahydro-3H-pyrrolo[3′,2′:5,6]pyrido[3,4-d]pyrimidin-3-one] | ≤ 100 nM | 500 to 1000 nM | ≤ 100 nM | 100 to 500 nM

Source: US11661422B2, “Tricyclic urea compounds as JAK2 V617F inhibitors” (Incyte Corporation, priority 2020, dated 2023)
